In paper PMC6522510 (Nature Communications, 2019):

Experiments:
Set-up in all cases: species or system AML cell lines (8); Primary HTS, single concentration about 10 uM, Cell Titer Glo viability; log10 luminescence, per cent inhibition relative to cycloheximide control
Conditions in all cases: 72 h, relative to cycloheximide control, log10 luminescence; inhibitor
CMK = test system: CMK
M07e = test system: M07e
U937 = test system: U937
MOLM-13 = test system: MOLM-13
CMS = test system: CMS
MV4-11 = test system: MV4-11
CHRF288-11 = test system: CHRF288-11
ML-2 = test system: ML-2

Structure (SMILES)	CMK %inh (CMK)	M07e %inh (M07e)	U937 %inh (U937)	MOLM-13 %inh (MOLM-13)	CMS %inh (CMS)	MV4-11 %inh (MV4-11)	CHRF288-11 %inh (CHRF288-11)	ML-2 %inh (ML-2)
Cc1ccc(O)cc1Nc1ccnc2cc(-c3ccccn3)ccc12 [SJ000573269-1, R1902/28/3 | HC 206053 | GW440139B | | RTP SMTECH | SID124349934 | TCMDC-138201 | GW440139B |]	50.01%	10.95%	14.95%	20.29%	4.641%	3.761%	60.6%	1.439%
CCOc1nccc2c1nc(-c1nonc1N)n2CC [SJ000573270-1, DW100508-082A1]	45.39%	-0.5841%	-1.837%	-1.635%	-3.21%	-0.5042%	53.12%	28.26%
O=C(Nc1n[nH]c2nc(-c3ccco3)ccc12)C1CC1 [SJ000573271-1, VB100064-193A1]	-3.194%	-1.707%	-4.198%	1.202%	0.8699%	-0.2919%	7.062%	-0.1888%
Cc1ccc(C(=O)NC2CC2)cc1-c1ccc2[nH]ncc2c1 [SJ000573272-1, R8615/48/1]	0.7696%	0.6909%	1.222%	-2.369%	0.2308%	1.257%	1.821%	0.7274%
CCCN1CCC=C(c2ccc(Nc3nc(Nc4ccccc4C(N)=O)c4cc[nH]c4n3)c(C)c2)C1 [SJ000573273-1, U22972/6/1]	24.28%	19.9%	14.36%	49.41%	2.734%	28.66%	54.2%	20.08%
COc1cc(Nc2nccc(-c3cnn4ncccc34)n2)cc(OC)c1 [SJ000573274-1, U16419/146/1]	84.54%	113.9%	80.29%	76.09%	100.2%	76.66%	52.5%	59.09%
CC(C)c1ccc(-c2cc(-c3c[nH]nc3-c3ccccn3)ccn2)cc1 [SJ000573275-1, FVLN/241/7/1]	0.9087%	2.317%	0.007743%	2.021%	-0.3112%	4.536%	9.433%	1.414%
Fc1ccc(-c2cc(-c3c[nH]nc3-c3ccccn3)ccn2)cc1 [SJ000573276-1, FCJB/213/107/1]	15.4%	-1.13%	16.91%	10.74%	-1.917%	1.718%	-1.896%	4.336%
COc1ccc(-c2cc(-c3c[nH]nc3-c3ccccn3)ccn2)cc1 [SJ000573277-1, FFJG/208/167/1]	4.937%	1.202%	7.208%	2.31%	0.9761%	4.2%	12.63%	-0.1507%
Nc1nc(-c2ccccn2)c(-c2ccc3ncccc3n2)s1 [SJ000573278-1, FAMP/256/57/4]	2.499%	0.9531%	-0.9094%	2.605%	0.3275%	-2.996%	2.264%	2.846%
c1ccc(-c2n[nH]cc2-c2ccnc(-c3ccc(OCCN4CCOCC4)cc3)c2)nc1 [SJ000573279-1, FVLN/241/86/2]	0.1656%	-4.621%	-1.579%	4.641%	-2.932%	1.132%	1.18%	-0.6736%
CN(c1ccc(NC(=O)Nc2ccc(OC(F)(F)F)cc2)cc1)c1ccnc(Nc2cccc(S(N)(=O)=O)c2)n1 [SJ000573281-1, U17983/20/3]	57.59%	21.34%	20.62%	77.33%	4.771%	82.54%	54%	11.59%
N#Cc1c(NC(=O)c2ccc(F)cc2)sc2c1CCCC2 [SJ000573282-1, R15619/128/1]	5.634%	6.55%	2.356%	3.13%	0.2829%	-0.9119%	20.67%	2.372%
Cc1c2ccc(N(C)c3ccnc(Nc4cccc(S(N)(=O)=O)c4)n3)cc2nn1C [SJ000573283-1, U17574/40/1]	33.97%	4.447%	17.32%	26.58%	2.522%	13.33%	6.19%	3.984%
COc1cc2c(cc1Nc1nc(Nc3cccc(F)c3C(N)=O)c3cc[nH]c3n1)N(C(=O)CN1CCN(C(C)C)CC1)CC2 [SJ000573284-1, U23773/22/1]	28.42%	-2.07%	-4.151%	110%	4.776%	-1.565%	156%	60.74%
COC(=O)Nc1nc2ccc(Oc3ccc(NC(=O)Nc4cc(C(F)(F)F)ccc4F)cc3)cc2s1 [SJ000573286-1, T277/77/2]	4.078%	9.62%	-3.236%	27.47%	-2.124%	23.01%	2.804%	3.773%
Nc1nc(-c2cccc(Cl)c2)c(-c2ccc3ncccc3n2)s1 [SJ000573287-1, FTTA/246/163/2]	-4.613%	1.682%	-2.159%	-0.7857%	0.5039%	-3.034%	1.906%	2.244%
Cc1nnc(-c2cccc(-c3ccc(C(=O)NCC4CC4)cc3)c2)o1 [SJ000573288-1, N5058-19-3]	3.578%	0.8786%	-1.478%	2.072%	-1.146%	-0.4477%	-4.251%	2.007%
CN(C)CCOc1ccc(-c2nc(-c3ccncc3)c(-c3ccc4c(c3)CC/C4=N\O)[nH]2)cc1 [SJ000573289-1, MM206071-092A1 | SB590885]	-1.288%	3.647%	1.485%	11.69%	1.753%	2.418%	9.844%	-1.225%
